In PubChem BioAssay AID296 (DTP/NCI, 2004):
Several values for one entry are separate records, joined by “and”; a condition that tells them apart may be missing. Equal values may be shown once. Results filed as inconclusive are left out.

Test system: MX-1 breast xenograft, nude mice, tumor weight T/C
Experiment: NCI In Vivo Anticancer Drug Screen. Data for tumor model Human Mammary Carcinoma MX-1 Xenograft (intrarenal inoculation) in NU/NU Swiss (nude) mice
Settings: endpoint: mean tumor weight change, higher = larger tumour
How it was run: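 Activity is given as a ratio, with each measurement in the compound-treated arm divided by the matching measurement in vehicle-dosed controls. Tumour size or survival serves as the measured parameter.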

[1] = dose: 12.5 mg/kg/injection, schedule: Q01DX010 (sc), vehicle: saline
[2] = dose: 25.0 mg/kg/injection, schedule: Q01DX010 (sc), vehicle: saline
[3] = dose: 50.0 mg/kg/injection, schedule: Q01DX010 (sc), vehicle: saline
[4] = dose: 200.0 mg/kg/injection, schedule: Q01DX010 (sc), vehicle: suspension in saline
[5] = dose: 300.0 mg/kg/injection, schedule: Q04DX003 (sc), vehicle: saline

In the case of `CN(CO)c1nc(N(C)CO)nc(N(C)CO)n1`, the T/C [1] is reported as 157 % of control, the T/C [2] is reported as 55 % of control and the T/C [3] is reported as 4 % of control. For the same molecule, the T/C (dose: 100.0 mg/kg/injection, schedule: Q01DX010 (sc), vehicle: saline) was -81 % of control, the T/C (dose: 100.0 mg/kg/injection, schedule: Q01DX010 (sc), vehicle: suspension in saline) was -100 % of control and the T/C (dose: 150.0 mg/kg/injection, schedule: Q04DX003 (sc), vehicle: saline) was -80 % of control and -77 % of control and -57 % of control. The T/C [4] was -100 % of control, the T/C [5] was -85 % of control and -84 % of control and the T/C (dose: 300.0 mg/kg/injection, schedule: Q04DX003 (sc), vehicle: suspension in saline) was -87 % of control and -100 % of control.

With `C[C@@]12C(=O)OC(=O)[C@]1(C)[C@H]1CC[C@@H]2O1` the T/C (dose: 1.25 mg/kg/injection, schedule: Q04DX003 (sc), vehicle: Klucel (hydroxypropylcellulose) (HPC)) was 29 % of control and the T/C (dose: 2.5 mg/kg/injection, schedule: Q04DX003 (sc), vehicle: Klucel (hydroxypropylcellulose) (HPC)) was 74 % of control.

With `CC1=C(C)C(=O)O[C@@H]([C@](C)(O)[C@]2(O)CC[C@@]3(O)[C@@H]4C[C@H]5O[C@]56[C@@H](O)C=CC(=O)[C@]6(C)[C@H]4CC[C@]23C)C1` the T/C (dose: 16.0 mg/kg/injection, schedule: Q01DX010 (sc), vehicle: saline) was 155 % of control, the T/C (dose: 32.0 mg/kg/injection, schedule: Q01DX010 (sc), vehicle: saline) was 95 % of control and the T/C (dose: 64.0 mg/kg/injection, schedule: Q01DX010 (sc), vehicle: saline) was 75 % of control.

`Cc1c(N)nc(C(CC(N)=O)NCC(N)C(N)=O)nc1C(=O)NC(C(=O)NC(C)C(O)CC(=O)NC(C(=O)NC(OC1OC(C)C(N)C(O)C1O)C(O)c1nc(-c2nc(C(=O)NCCCC(N)CC(=O)NCCCNCCCCN)cs2)cs1)C(C)O)C(OC1OC(CO)C(O)C(O)C1OC1OC(CO)C(O)C(OC(N)=O)C1O)c1cnc[nH]1` (stereo unspecified) was tested, and the T/C (dose: 8.0 mg/kg/injection, schedule: Q04DX003 (sc), vehicle: saline) was 47 % of control and the T/C (dose: 16.0 mg/kg/injection, schedule: Q04DX003 (sc), vehicle: saline) was 40 % of control.

In the case of `C1CN2CCC1CC2`, the T/C (dose: 4.69 mg/kg/injection, schedule: Q04DX003 (sc), vehicle: saline with Tween-80) is reported as 112 % of control and the T/C (dose: 9.38 mg/kg/injection, schedule: Q04DX003 (sc), vehicle: saline with Tween-80) is reported as 93 % of control.

In the case of `COc1ccc(C(=O)/C(Br)=C/C(=O)O)cc1`, the T/C [1] is reported as 110 % of control, the T/C [2] is reported as 63 % of control and the T/C [3] is reported as 98 % of control.

In the case of `Cc1ccc2c(c1)N=C(Nc1ccccc1)N=S2(C)=O` (stereo unspecified), the T/C (dose: 100.0 mg/kg/injection, schedule: Q04DX003 (sc), vehicle: saline with Tween-80) is reported as 79 % of control, the T/C (dose: 200.0 mg/kg/injection, schedule: Q04DX003 (sc), vehicle: saline with Tween-80) is reported as 78 % of control and the T/C (dose: 400.0 mg/kg/injection, schedule: Q04DX003 (sc), vehicle: saline with Tween-80) is reported as 75 % of control. The T/C (dose: 800.0 mg/kg/injection, schedule: Q04DX003 (sc), vehicle: saline with Tween-80) was 60 % of control.

`CN(C)/N=N/c1nc[nH]c1C(N)=O` was tested, and the T/C (dose: 100.0 mg/kg/injection, schedule: Q01DX010 (sc), vehicle: Klucel (hydroxypropylcellulose) (HPC)) was 93 % of control, the T/C (dose: 200.0 mg/kg/injection, schedule: Q01DX010 (sc), vehicle: Klucel (hydroxypropylcellulose) (HPC)) was 48 % of control and the T/C (dose: 400.0 mg/kg/injection, schedule: Q01DX010 (sc), vehicle: Klucel (hydroxypropylcellulose) (HPC)) was 14 % of control.

With `OC1CCCC2CCCNC12` (stereo unspecified) the T/C (dose: 37.5 mg/kg/injection, schedule: Q04DX003 (sc), vehicle: saline with Tween-80) was 76 % of control and the T/C (dose: 75.0 mg/kg/injection, schedule: Q04DX003 (sc), vehicle: saline with Tween-80) was 85 % of control.

`OCC1OC(n2cnc3c(Cl)ncnc32)C(O)C1O` (stereo unspecified) was tested, and the T/C [5] was 74 % of control, the T/C (dose: 600.0 mg/kg/injection, schedule: Q04DX003 (sc), vehicle: saline) was 84 % of control and the T/C (dose: 1200.0 mg/kg/injection, schedule: Q04DX003 (sc), vehicle: saline) was 80 % of control.

`COC1/C=C/O[C@@]2(C)Oc3c(C)c(O)c4c(O)c(cc(O)c4c3C2=O)NC(=O)/C(C)=C\C=C\[C@H](C)C(O)[C@@H](C)[C@@H](O)[C@@H](C)[C@H](OC(C)=O)[C@@H]1C` (stereo partly specified) was tested, and the T/C (dose: 600.0 mg/kg/injection, schedule: Q04DX003 (sc), vehicle: suspension in saline) was 153 % of control and the T/C (dose: 2400.0 mg/kg/injection, schedule: Q04DX003 (sc), vehicle: suspension in saline) was 150 % of control.

With `OCC1(CO)COC2(CCCCC2)N1` the T/C [3] was 107 % of control, the T/C (dose: 200.0 mg/kg/injection, schedule: Q01DX010 (sc), vehicle: saline) was 75 % of control and the T/C [4] was 83 % of control. For the same molecule, the T/C (dose: 400.0 mg/kg/injection, schedule: Q01DX010 (sc), vehicle: suspension in saline) was 56 % of control, the T/C (dose: 800.0 mg/kg/injection, schedule: Q01DX010 (sc), vehicle: suspension in saline) was 63 % of control and the T/C (dose: 1600.0 mg/kg/injection, schedule: Q01DX010 (sc), vehicle: suspension in saline) was 105 % of control.
